Experimental data reported in US20150133426A1, “SUBSTITUTED PYRROLOPYRIMIDINES” (BAYER PHARMA AKTIENGESELLSCHAFT, priority 2012, published 2015).

Target: T1, human full-length MKNK1 (Homo sapiens, UniProt Q9BUB5, T385D)
T1 construct: purchased Carna Biosciences 02-145; host or cells: insect cells, baculovirus expression system
Experiment: MKNK1 kinase high ATP assay (TR-FRET)
Type: biochemical
Settings: high ATP (2 mM), 15 min preincubation with enzyme, GST-MKNK1 (T344D)
Method in brief: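 GST-tagged full-length human MKNK1 (aa 1-424, T344D), baculovirus-expressed, preincubated 15 min with compound, then reacted 30 min at 22 °C with 2 mM ATP and 0.06 µM biotinylated peptide (final).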

T1 sequence (Q9BUB5 1-424 isoform Q9BUB5-2 T344D): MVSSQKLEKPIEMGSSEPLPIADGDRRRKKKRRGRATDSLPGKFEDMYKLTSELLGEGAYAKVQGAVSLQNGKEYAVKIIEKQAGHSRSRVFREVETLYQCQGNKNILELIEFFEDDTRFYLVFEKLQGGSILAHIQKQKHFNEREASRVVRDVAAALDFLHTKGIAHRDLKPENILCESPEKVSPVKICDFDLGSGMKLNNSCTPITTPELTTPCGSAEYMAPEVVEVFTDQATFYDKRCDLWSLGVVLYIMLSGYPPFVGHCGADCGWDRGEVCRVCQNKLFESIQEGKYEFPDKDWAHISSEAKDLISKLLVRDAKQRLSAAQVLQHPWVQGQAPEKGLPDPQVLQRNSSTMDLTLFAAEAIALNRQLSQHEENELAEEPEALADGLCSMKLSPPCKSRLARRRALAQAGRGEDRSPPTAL

IC50 [µM]	SMILES
2.24	CS(=O)(=O)CCCNC(=O)C1CCc2[nH]c3ncnc(Nc4ccc5c(c4)C(=O)OC5)c3c2C1 (racemic) [Example 46, (RS)—N-[3-(Methylsulfonyl)propyl]-4-[(3-oxo-1,3-dihydro-2-benzofuran-5-yl)amino]-6,7,8,9-tetrahydro-5H-pyrimido[4,5-b]indole-6-carboxamide]
0.159	CCNC(=O)C1CCc2[nH]c3ncnc(Nc4cc(F)ccc4OC)c3c2C1 (racemic) [Example 194, (RS)—N-Ethyl-4-[(5-fluoro-2-methoxyphenyl)amino]-6,7,8,9-tetrahydro-5H-pyrimido[4,5-b]indole-6-carboxamide]
0.004	COc1cc2[nH]ncc2cc1Nc1ncnc2[nH]c3c(c12)CC(C(=O)N1CCN(C)CC1)CC3 (racemic) [Example 221, (RS)-{4-[(6-Methoxy-1H-indazol-5-yl)amino]-6,7,8,9-tetrahydro-5H-pyrimido[4,5-b]indol-6-yl}(4-methylpiperazin-1-yl)methanone]
0.911	O=C(O)C1CCc2[nH]c3ncnc(Nc4ccccc4N4CCOCC4)c3c2C1 (racemic) [Example 186, (RS)-4-{[2-(Morpholin-4-yl)phenyl]amino}-6,7,8,9-tetrahydro-5H-pyrimido[4,5-b]indole-6-carboxylic acid]
0.013	CCOC(=O)C1CCc2[nH]c3ncnc(Nc4cc5cn[nH]c5cc4OC)c3c2C1 (racemic) [Example 179, (RS)-Ethyl 4-[(6-methoxy-1H-indazol-5-yl)amino]-6,7,8,9-tetrahydro-5H-pyrimido[4,5-b]indole-6-carboxylate]
0.042	CC(C)Oc1cc(F)ccc1Nc1ncnc2[nH]c3c(c12)CSCC3 [Example 11, N-(4-Fluoro-2-isopropoxyphenyl)-5,7,8,9-tetrahydrothiopyrano[3′,4′:4,5]pyrrolo[2,3-d]pyrimidin-4-amine]
0.01	CNC(=O)C1CCc2[nH]c3ncnc(Nc4cc5cn[nH]c5cc4OC)c3c2C1 (racemic) [Example 217, (RS)-4-[(6-Methoxy-1H-indazol-5-yl)amino]-N-methyl-6,7,8,9-tetrahydro-5H-pyrimido[4,5-b]indole-6-carboxamide]
0.086	CCOc1cc(Cl)ccc1Nc1ncnc2[nH]c3c(c12)CC(C(=O)NCCCS(C)(=O)=O)CC3 (racemic) [Example 165, (RS)-4-[(4-Chloro-2-ethoxyphenyl)amino]-N-[3-(methylsulfonyl)propyl]-6,7,8,9-tetrahydro-5H-pyrimido[4,5-b]indole-6-carboxamide]
10.8	COc1cc(N2CCOCC2)ccc1Nc1ncnc2[nH]c3c(c12)CC(C(=O)NCCCS(C)(=O)=O)CC3 (racemic) [Example 71, (RS)-4-{[2-Methoxy-4-(morpholin-4-yl)phenyl]amino}-N-[3-(methylsulfonyl)propyl]-6,7,8,9-tetrahydro-5H-pyrimido[4,5-b]indole-6-carboxamide]
0.115	COc1ccc(F)cc1Nc1ncnc2[nH]c3c(c12)CC(C(=O)N1CCN(C)CC1)CC3 (racemic) [Example 196, (RS)-{4-[(5-Fluoro-2-methoxyphenyl)amino]-6,7,8,9-tetrahydro-5H-pyrimido[4,5-b]indol-6-yl}(4-methylpiperazin-1-yl)methanone]
0.043	CC(C)Oc1cc(F)ccc1Nc1ncnc2[nH]c3c(c12)CCCC3 [Example 1, N-(4-Fluoro-2-isopropoxyphenyl)-6,7,8,9-tetrahydro-5H-pyrimido[4,5-b]indol-4-amine]
0.052	CS(=O)(=O)CCCNC(=O)C1CCc2[nH]c3ncnc(Nc4ccccc4N4CCOCC4)c3c2C1 (racemic) [Example 30, (RS)—N-[3-(Methylsulfonyl)propyl]-4-{[2-(morpholin-4-yl)phenyl]amino}-6,7,8,9-tetrahydro-5H-pyrimido[4,5-b]indole-6-carboxamide]
1.65	COCC1(OC)CCc2[nH]c3ncnc(Nc4ccc(F)cc4OC4CCCC4)c3c2C1 (racemic) [Example 134]
0.215	CCNC(=O)C1CCc2[nH]c3ncnc(Nc4ccccc4N4CCOCC4)c3c2C1 (racemic) [Example 201, (RS)—N-Ethyl-4-{[2-(morpholin-4-yl)phenyl]amino}-6,7,8,9-tetrahydro-5H-pyrimido[4,5-b]indole-6-carboxamide]
0.006	CCNC(=O)C1CCc2[nH]c3ncnc(Nc4cc5cn[nH]c5cc4OC)c3c2C1 (racemic) [Example 218, (RS)—N-Ethyl-4-[(6-methoxy-1H-indazol-5-yl)amino]-6,7,8,9-tetrahydro-5H-pyrimido[4,5-b]indole-6-carboxamide]
2.89	O=C(Nc1ccccc1)C1CCc2[nH]c3ncnc(Nc4ccccc4OC4CCCC4)c3c2C1 (racemic) [Example 193, (RS)-4-{[2-(Cyclopentyloxy)phenyl]amino}-N-phenyl-6,7,8,9-tetrahydro-5H-pyrimido[4,5-b]indole-6-carboxamide]
0.683	Nc1ccc2c(c1)CCN2c1ncnc2[nH]c3c(c12)CCCC3 [Example 113]

IC50 [µM]	SMILES
0.192	[O-][S+]1CCc2[nH]c3ncnc(Nc4ccc5[nH]ncc5c4)c3c2C1 (racemic) [Example 85, (RS)—N-(1H-Indazol-5-yl)-5,7,8,9-tetrahydrothiopyrano[3′,4′:4,5]pyrrolo[2,3-d]pyrimidin-4-amine 6-oxide]
0.677	CS(=O)(=O)CCCNC(=O)C1CCc2[nH]c3ncnc(Nc4cc(OC(F)(F)F)ccc4F)c3c2C1 (racemic) [Example 62, (RS)-4-{[2-Fluoro-5-(trifluoromethoxy)phenyl]amino}-N-[3-(methylsulfonyl)propyl]-6,7,8,9-tetrahydro-5H-pyrimido[4,5-b]indole-6-carboxamide]
0.055	O=c1[nH]c2cc(Cl)c(Nc3ncnc4[nH]c5c(c34)CCCC5)cc2s1 [Example 236, 5-Chloro-6-(6,7,8,9-tetrahydro-5H-pyrimido[4,5-b]indol-4-ylamino)-1,3-benzothiazol-2(3H)-one]
1.36	CS(=O)(=O)CCCNC(=O)C1CCc2[nH]c3ncnc(Nc4cccc5c4OC(F)(F)O5)c3c2C1 (racemic) [Example 60, (RS)-4-[(2,2-Difluoro-1,3-benzodioxol-4-yl)amino]-N-[3-(methylsulfonyl)propyl]-6,7,8,9-tetrahydro-5H-pyrimido[4,5-b]indole-6-carboxamide]
0.006	COc1cc2[nH]ncc2cc1Nc1ncnc2[nH]c3c(c12)CC(F)(F)CC3 [Example 141]
0.746	CS(=O)(=O)CCCNC(=O)C1CCc2[nH]c3ncnc(Nc4ccccc4OC(F)(F)F)c3c2C1 (racemic) [Example 32, (RS)—N-[3-(Methylsulfonyl)propyl]-4-{[2-(trifluoromethoxy)phenyl]amino}-6,7,8,9-tetrahydro-5H-pyrimido[4,5-b]indole-6-carboxamide]
0.053	CC(C)NC(=O)C1CCc2[nH]c3ncnc(Nc4ccc(F)cc4OC(C)C)c3c2C1 (racemic) [Example 223, (RS)-4-{[4-Fluoro-2-(propan-2-yloxy)phenyl]amino}-N-(propan-2-yl)-6,7,8,9-tetrahydro-5H-pyrimido[4,5-b]indole-6-carboxamide]
0.045	CS(=O)(=O)CCCNC(=O)C1CCc2[nH]c3ncnc(Nc4ccc(Cl)c(Cl)c4)c3c2C1 (racemic) [Example 166, (RS)-4-[(3,4-Dichlorophenyl)amino]-N-[3-(methylsulfonyl)propyl]-6,7,8,9-tetrahydro-5H-pyrimido[4,5-b]indole-6-carboxamide]
3.17	CS(=O)(=O)CCCNC(=O)C1CCc2[nH]c3ncnc(Nc4ccc5c(c4)OC(F)(F)O5)c3c2C1 (racemic) [Example 36, (RS)-4-[(2,2-Difluoro-1,3-benzodioxol-5-yl)amino]-N-[3-(methylsulfonyl)propyl]-6,7,8,9-tetrahydro-5H-pyrimido[4,5-b]indole-6-carboxamide]
0.051	CCOC(=O)CNC(=O)C1CCc2[nH]c3ncnc(Nc4ccc(F)cc4OCCO)c3c2C1 (racemic) [Example 228, (RS)-Ethyl N-[(4-{[4-fluoro-2-(2-hydroxyethoxy)phenyl]amino}-6,7,8,9-tetrahydro-5H-pyrimido[4,5-b]indol-6-yl)carbonyl]glycinate]
0.004	COc1cc2[nH]ncc2cc1Nc1ncnc2[nH]c3c(c12)CC(C(=O)NCCCS(C)(=O)=O)CC3 (racemic) [Example 163, (RS)-4-[(6-Methoxy-1H-indazol-5-yl)amino]-N-[3-(methylsulfonyl)propyl]-6,7,8,9-tetrahydro-5H-pyrimido[4,5-b]indole-6-carboxamide]
0.005	CC(C)Oc1cc2[nH]ncc2cc1Nc1ncnc2[nH]c3c(c12)CC(F)(F)CC3 [Example 232, 6,6-Difluoro-N-[6-(propan-2-yloxy)-1H-indazol-5-yl]-6,7,8,9-tetrahydro-5H-pyrimido[4,5-b]indol-4-amine]
0.181	CN1CCN(C(=O)C2CCc3[nH]c4ncnc(Nc5ccccc5OC5CCCC5)c4c3C2)CC1 (racemic) [Example 192, (RS)-(4-{[2-(Cyclopentyloxy)phenyl]amino}-6,7,8,9-tetrahydro-5H-pyrimido[4,5-b]indol-6-yl)(4-methylpiperazin-1-yl)methanone]
0.288	CC(C)Oc1ccc(Cl)cc1Nc1ncnc2[nH]c3c(c12)CC(C(=O)O)CC3 (racemic) [Example 234, (RS)-4-{[5-Chloro-2-(propan-2-yloxy)phenyl]amino}-6,7,8,9-tetrahydro-5H-pyrimido[4,5-b]indole-6-carboxylic acid]
0.024	CC(C)NC(=O)C1CCc2[nH]c3ncnc(Nc4ccc5[nH]ncc5c4)c3c2C1 (racemic) [Example 227, (RS)-4-(1H-Indazol-5-ylamino)-N-(propan-2-yl)-6,7,8,9-tetrahydro-5H-pyrimido[4,5-b]indole-6-carboxamide]
0.082	CS(=O)(=O)CCCNC(=O)C1CCc2[nH]c3ncnc(Nc4ccc5c(c4)COC5=O)c3c2C1 (racemic) [Example 45, (RS)—N-[3-(Methylsulfonyl)propyl]-4-[(1-oxo-1,3-dihydro-2-benzofuran-5-yl)amino]-6,7,8,9-tetrahydro-5H-pyrimido[4,5-b]indole-6-carboxamide]
